Measurements reported in ChEMBL document CHEMBL3885861, “Open TG-GATES”.

Species on record: Rattus norvegicus
Test: Open TG-GATES - Regimen: Single
Format: toxicity, organism-based, Sprague-Dawley
Set-up: regimen Single, gender Male, age 6 weeks
Conditions: in vivo, iv, route intravenous injection; for APTT / Bas / Eos / Fbg / Hb / Ht / Lym / MCH / MCHC / MCV / Mono / Neu / PT / Plat / RBC / Ret / WBC: tissue Blood; for KIDNEY_L / KIDNEY_R / KIDNEY_TOTAL: tissue Kidney; for LIVER: tissue Liver
[1] = 0 mg/kg, 24 h, tissue Plasma, dose level Control
[2] = 1 mg/kg, 3 h, tissue Plasma, dose level Low
[3] = 1 mg/kg, 6 h, tissue Plasma, dose level Low

## C[C@@H]1C[C@@H]([C@H](O)CC2CC(=O)NC(=O)C2)C(=O)[C@@H](C)C1 [CYCLOHEXIMIDE]
[1]
  TBIL: 0.018 mg/dL
  TC: 75 mg/dL
  TG: 83.2 mg/dL
  TP: 5.6 g/dL
  gamma-GTP: 1.8 IU/L
1 mg/kg, 3 h, dose level Low
  TERMINAL_BW: 216.3 g
  APTT: 20.1 s
  Bas: 0%
  Eos: 0.6%
  Fbg: 275.2 mg/dL
  Hb: 13.1 g/dL
  Ht: 38.5%
  Lym: 73.2%
  MCH: 21.7 pg
  MCHC: 34%
  MCV: 63.7 fL
  Mono: 2.4%
  Neu: 22.2%
  PT: 17.6 s
  Plat: 121.9 x10_4/uL
  RBC: 605.6 x10_4/ul
  Ret: 8.4%
  WBC: 174.9 x10_2/uL
  KIDNEY_L: 0.9 g
  KIDNEY_R: 0.9 g
  KIDNEY_TOTAL: 1.9 g
  LIVER: 9 g
[2]
  A/G: 1.4
  ALP: 1054.4 IU/L
  ALT: 46 IU/L
  AST: 86 IU/L
  BUN: 23.6 mg/dL
  CRE: 0.1 mg/dL
  Ca: 9.6 mg/dL
  Cl: 107.4 meq/L
  DBIL: 0.002 mg/dL
  GLC: 145.6 mg/dL
  IP: 9.1 mg/dL
  K: 4.3 meq/L
  LDH: 174 IU/L
  Na: 142.2 meq/L
  PL: 78.8 mg/dL
  RALB: 2.8 g/dL
  TBIL: 0.016 mg/dL
  TC: 55.2 mg/dL
  TG: 61.6 mg/dL
  TP: 4.9 g/dL
  gamma-GTP: 1.6 IU/L
1 mg/kg, 6 h, dose level Low
  TERMINAL_BW: 217.9 g
  APTT: 25.1 s
  Bas: 0%
  Eos: 1%
  Fbg: 276 mg/dL
  Hb: 13.2 g/dL
  Ht: 39.6%
  Lym: 65.2%
  MCH: 21.2 pg
  MCHC: 33.4%
  MCV: 63.4 fL
  Mono: 2.8%
  Neu: 30%
  PT: 19.7 s
  Plat: 107.5 x10_4/uL
  RBC: 625.2 x10_4/ul
  Ret: 7.7%
  WBC: 190 x10_2/uL
  KIDNEY_L: 0.9 g
  KIDNEY_R: 1 g
  KIDNEY_TOTAL: 1.9 g
  LIVER: 8.6 g
[3]
  A/G: 1.5
  ALP: 1085.8 IU/L
  ALT: 45 IU/L
  AST: 82.6 IU/L
  BUN: 18.2 mg/dL
  CRE: 0.1 mg/dL
  Ca: 8.6 mg/dL
  Cl: 105.4 meq/L
  DBIL: 0.004 mg/dL
  GLC: 146.2 mg/dL
  IP: 9.4 mg/dL
  K: 3.6 meq/L
  LDH: 164.8 IU/L
